Data from publication PMC10905675, “INX-315, a Selective CDK2 Inhibitor, Induces Cell Cycle Arrest and Senescence in Solid Tumors” (Cancer Discovery, 2023).

Assays:
ABL1 E255K = target: T1, ABL1 E255K (Homo sapiens, UniProt P00519, E255K); assay: SelectScreen ZLYTE; format: biochemical; conditions: INX-0315 at 100nM
T1 construct: purchased Thermo Fisher Scientific SelectScreen (plus Nanosyn / Reaction Biology for CDK/cyclin lines)
Description: (§1) INX-315 was first evaluated in the SelectScreen Biochemical Kinase Profiling at Thermo Fisher Scientific (Madison, WI). The primary screen consisted of INX-315 dosed at a single concentration of 100 nmol/L in 1% DMSO across each platform within the SelectScreen array of assays, LanthaScreen Eu Kinase Binding Assay; AdaptaScreen; and Z'LyteScreen using preestablished conditions at Thermo Fisher Scientific as shown in Supplementary Table S2. […] The follow-up screen consisted of 10-point dose–response curves for INX-315 from 1 µmol/L to 0.0495 nmol/L.

ABL1 Y253F = target: T2, ABL1 Y253F (Homo sapiens, UniProt P00519, Y253F); assay: SelectScreen ZLYTE; format: biochemical; conditions: INX-0315 at 100nM
T2 construct: purchased Thermo Fisher Scientific SelectScreen (plus Nanosyn / Reaction Biology for CDK/cyclin lines)
Description: as §1

CLK3 = target: T3, CLK3 (Homo sapiens, UniProt P49761); assay: SelectScreen ZLYTE; format: biochemical; conditions: INX-0315 at 100nM
T3 construct: purchased Thermo Fisher Scientific SelectScreen (plus Nanosyn / Reaction Biology for CDK/cyclin lines)
Description: as §1

DNA-PK = target: T4, DNA-PK (Homo sapiens, UniProt P78527); assay: SelectScreen ZLYTE; format: biochemical; conditions: INX-0315 at 100nM
T4 construct: purchased Thermo Fisher Scientific SelectScreen (plus Nanosyn / Reaction Biology for CDK/cyclin lines)
Description: as §1

EGFR (ErbB1) C797S = target: T5, EGFR (ErbB1) C797S (Homo sapiens, UniProt P00533, C797S); assay: SelectScreen ZLYTE; format: biochemical; conditions: INX-0315 at 100nM
T5 construct: purchased Thermo Fisher Scientific SelectScreen (plus Nanosyn / Reaction Biology for CDK/cyclin lines)
Description: as §1

EGFR (ErbB1) L858R = target: T6, EGFR (ErbB1) L858R (Homo sapiens, UniProt P00533, L858R); assay: SelectScreen ZLYTE; format: biochemical; conditions: INX-0315 at 100nM
T6 construct: purchased Thermo Fisher Scientific SelectScreen (plus Nanosyn / Reaction Biology for CDK/cyclin lines)
Description: as §1

EPHA5 = target: T7, EPHA5 (Homo sapiens, UniProt P54756); assay: SelectScreen ZLYTE; format: biochemical; conditions: INX-0315 at 100nM
T7 construct: purchased Thermo Fisher Scientific SelectScreen (plus Nanosyn / Reaction Biology for CDK/cyclin lines)
Description: as §1

EPHA8 = target: T8, EPHA8 (Homo sapiens, UniProt P29322); assay: SelectScreen ZLYTE; format: biochemical; conditions: INX-0315 at 100nM
T8 construct: purchased Thermo Fisher Scientific SelectScreen (plus Nanosyn / Reaction Biology for CDK/cyclin lines)
Description: as §1

FER = target: T9, FER (Homo sapiens, UniProt P16591); assay: SelectScreen ZLYTE; format: biochemical; conditions: INX-0315 at 100nM
T9 construct: purchased Thermo Fisher Scientific SelectScreen (plus Nanosyn / Reaction Biology for CDK/cyclin lines)
Description: as §1

FGFR2 N549H = target: T10, FGFR2 N549H (Homo sapiens, UniProt P21802, N549H); assay: SelectScreen ZLYTE; format: biochemical; conditions: INX-0315 at 100nM
T10 construct: purchased Thermo Fisher Scientific SelectScreen (plus Nanosyn / Reaction Biology for CDK/cyclin lines)
Description: as §1

FGFR4 = target: T11, FGFR4 (Homo sapiens, UniProt P22455); assay: SelectScreen ZLYTE; format: biochemical; conditions: INX-0315 at 100nM
T11 construct: purchased Thermo Fisher Scientific SelectScreen (plus Nanosyn / Reaction Biology for CDK/cyclin lines)
Description: as §1

MAPKAPK5 (PRAK) = target: T12, MAPKAPK5 (PRAK) (Homo sapiens, UniProt Q8IW41); assay: SelectScreen ZLYTE; format: biochemical; conditions: INX-0315 at 100nM
T12 construct: purchased Thermo Fisher Scientific SelectScreen (plus Nanosyn / Reaction Biology for CDK/cyclin lines)
Description: as §1

MATK (HYL) = target: T13, MATK (HYL) (Homo sapiens, UniProt P42679); assay: SelectScreen ZLYTE; format: biochemical; conditions: INX-0315 at 100nM
T13 construct: purchased Thermo Fisher Scientific SelectScreen (plus Nanosyn / Reaction Biology for CDK/cyclin lines)
Description: as §1

MST1R (RON) = target: T14, MST1R (RON) (Homo sapiens, UniProt Q04912); assay: SelectScreen ZLYTE; format: biochemical; conditions: INX-0315 at 100nM
T14 construct: purchased Thermo Fisher Scientific SelectScreen (plus Nanosyn / Reaction Biology for CDK/cyclin lines)
Description: as §1

PAK7 (KIAA1264) = target: T15, PAK7 (KIAA1264) (Homo sapiens, UniProt Q9P286); assay: SelectScreen ZLYTE; format: biochemical; conditions: INX-0315 at 100nM
T15 construct: purchased Thermo Fisher Scientific SelectScreen (plus Nanosyn / Reaction Biology for CDK/cyclin lines)
Description: as §1

PDK1 = target: T16, PDK1 (Homo sapiens, UniProt O15530); assay: SelectScreen ZLYTE; format: biochemical; conditions: INX-0315 at 100nM
T16 construct: purchased Thermo Fisher Scientific SelectScreen (plus Nanosyn / Reaction Biology for CDK/cyclin lines)
Description: as §1

PRKCA (PKC alpha) = target: T17, PRKCA (PKC alpha) (Homo sapiens, UniProt P17252); assay: SelectScreen ZLYTE; format: biochemical; conditions: INX-0315 at 100nM
T17 construct: purchased Thermo Fisher Scientific SelectScreen (plus Nanosyn / Reaction Biology for CDK/cyclin lines)
Description: as §1

PRKD1 (PKC mu) = target: T18, PRKD1 (PKC mu) (Homo sapiens, UniProt Q15139); assay: SelectScreen ZLYTE; format: biochemical; conditions: INX-0315 at 100nM
T18 construct: purchased Thermo Fisher Scientific SelectScreen (plus Nanosyn / Reaction Biology for CDK/cyclin lines)
Description: as §1

PRKG1 = target: T19, PRKG1 (Homo sapiens, UniProt Q13976); assay: SelectScreen ZLYTE; format: biochemical; conditions: INX-0315 at 100nM
T19 construct: purchased Thermo Fisher Scientific SelectScreen (plus Nanosyn / Reaction Biology for CDK/cyclin lines)
Description: as §1

RET A883F = target: T20, RET A883F (Homo sapiens, UniProt P07949, A883F); assay: SelectScreen ZLYTE; format: biochemical; conditions: INX-0315 at 100nM
T20 construct: purchased Thermo Fisher Scientific SelectScreen (plus Nanosyn / Reaction Biology for CDK/cyclin lines)
Description: as §1

RET V804E = target: T21, RET V804E (Homo sapiens, UniProt P07949, V804E); assay: SelectScreen ZLYTE; format: biochemical; conditions: INX-0315 at 100nM
T21 construct: purchased Thermo Fisher Scientific SelectScreen (plus Nanosyn / Reaction Biology for CDK/cyclin lines)
Description: as §1

SNF1LK2 = target: T22, SNF1LK2 (Homo sapiens, UniProt Q9H0K1); assay: SelectScreen ZLYTE; format: biochemical; conditions: INX-0315 at 100nM
T22 construct: purchased Thermo Fisher Scientific SelectScreen (plus Nanosyn / Reaction Biology for CDK/cyclin lines)
Description: as §1

STK3 (MST2) = target: T23, STK3 (MST2) (Homo sapiens, UniProt Q13188); assay: SelectScreen ZLYTE; format: biochemical; conditions: INX-0315 at 100nM
T23 construct: purchased Thermo Fisher Scientific SelectScreen (plus Nanosyn / Reaction Biology for CDK/cyclin lines)
Description: as §1

TEK (Tie2) = target: T24, TEK (Tie2) (Homo sapiens, UniProt Q02763); assay: SelectScreen ZLYTE; format: biochemical; conditions: INX-0315 at 100nM
T24 construct: purchased Thermo Fisher Scientific SelectScreen (plus Nanosyn / Reaction Biology for CDK/cyclin lines)
Description: as §1

TNK1 = target: T25, TNK1 (Homo sapiens, UniProt Q13470); assay: SelectScreen ZLYTE; format: biochemical; conditions: INX-0315 at 100nM
T25 construct: purchased Thermo Fisher Scientific SelectScreen (plus Nanosyn / Reaction Biology for CDK/cyclin lines)
Description: as §1

[1] = Body weight of tumor-bearing mice; format: in vivo; conditions: mice treated with INX-315, CCNE1-amplified models
Experimental: PDX models were performed by Crown Biosciences (OV5398, GA0103, and GA0114) or XenoSTART (ST4316B). Tumor fragments from stock mice were harvested and implanted subcutaneously into the flank of NOD/SCID mice (OV5398, RRID:IMSR_JAX:001303), BALB/c nude mice (GA0103 and GA0114, RRID:IMSR_RJ:BALB-C-NUDE), or athymic nude mice (Crl:NU(NCr)-Foxn1nu, RRID:IMSR_CRL:490) (ST4316B). For CDX models, female athymic nude mice (Crl:NU(NCr)-Foxn1nu, RRID:IMSR_CRL:490) were inoculated with 1 × 10^7 50% Cultrex OVCAR3 cells in the flank. Experiments performed using MMTV-rtTA/tetO-HER2 mice were performed at the Peter MacCallum Cancer Centre. Tumor formation was induced and sustained in female mice with doxycycline as previously described ([33]). Randomization and treatment in all models began when median tumor volume reached a maximum of 300 mm^3.
Mice were treated via oral gavage. INX-315 was prepared weekly in 100% PEG400; abemaciclib was prepared as previously described ([33]) and ribociclib (Selleckchem, S7440) was prepared weekly in 0.5% methyl cellulose. To generate abemaciclib-resistant MMTV-rtTA/tetO-HER2 tumors, mice were treated continuously with abemaciclib at a dose of 75 mg/kg until tumors resumed growth as described in text. […]

Water solubility = format: physicochemical

T23 sequence (Q13188 whole entry): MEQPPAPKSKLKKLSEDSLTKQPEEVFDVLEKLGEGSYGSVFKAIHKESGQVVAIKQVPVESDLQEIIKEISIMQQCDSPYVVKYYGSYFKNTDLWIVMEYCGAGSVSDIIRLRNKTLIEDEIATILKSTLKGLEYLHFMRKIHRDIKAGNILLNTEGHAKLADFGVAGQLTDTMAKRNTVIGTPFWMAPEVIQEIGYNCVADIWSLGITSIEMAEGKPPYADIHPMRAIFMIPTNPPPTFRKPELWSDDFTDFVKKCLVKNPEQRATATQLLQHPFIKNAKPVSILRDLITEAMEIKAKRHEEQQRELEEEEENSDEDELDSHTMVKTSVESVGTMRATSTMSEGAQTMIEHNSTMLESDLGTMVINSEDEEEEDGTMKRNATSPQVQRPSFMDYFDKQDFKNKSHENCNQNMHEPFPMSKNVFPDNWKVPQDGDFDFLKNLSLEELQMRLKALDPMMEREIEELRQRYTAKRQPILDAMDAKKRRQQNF
T15 sequence (Q9P286 whole entry): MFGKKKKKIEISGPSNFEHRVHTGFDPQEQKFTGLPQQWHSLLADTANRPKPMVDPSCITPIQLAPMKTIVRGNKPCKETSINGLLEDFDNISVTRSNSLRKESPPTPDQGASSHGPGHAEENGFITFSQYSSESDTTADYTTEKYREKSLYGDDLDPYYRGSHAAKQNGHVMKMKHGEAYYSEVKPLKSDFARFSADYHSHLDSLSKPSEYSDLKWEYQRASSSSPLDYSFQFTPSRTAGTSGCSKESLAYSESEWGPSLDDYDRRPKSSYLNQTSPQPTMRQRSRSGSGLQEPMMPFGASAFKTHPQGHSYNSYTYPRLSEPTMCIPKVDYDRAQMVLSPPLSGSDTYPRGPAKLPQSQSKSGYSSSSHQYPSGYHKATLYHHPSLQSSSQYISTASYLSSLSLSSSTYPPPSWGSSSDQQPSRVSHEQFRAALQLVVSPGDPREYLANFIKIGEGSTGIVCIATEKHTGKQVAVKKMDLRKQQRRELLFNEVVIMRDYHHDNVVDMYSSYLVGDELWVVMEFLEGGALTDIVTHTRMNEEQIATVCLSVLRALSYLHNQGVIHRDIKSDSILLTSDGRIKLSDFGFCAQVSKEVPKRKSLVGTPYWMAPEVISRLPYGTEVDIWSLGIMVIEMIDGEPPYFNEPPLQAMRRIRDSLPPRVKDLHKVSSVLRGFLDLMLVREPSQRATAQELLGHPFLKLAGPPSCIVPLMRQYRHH
T11 sequence (P22455 22-802): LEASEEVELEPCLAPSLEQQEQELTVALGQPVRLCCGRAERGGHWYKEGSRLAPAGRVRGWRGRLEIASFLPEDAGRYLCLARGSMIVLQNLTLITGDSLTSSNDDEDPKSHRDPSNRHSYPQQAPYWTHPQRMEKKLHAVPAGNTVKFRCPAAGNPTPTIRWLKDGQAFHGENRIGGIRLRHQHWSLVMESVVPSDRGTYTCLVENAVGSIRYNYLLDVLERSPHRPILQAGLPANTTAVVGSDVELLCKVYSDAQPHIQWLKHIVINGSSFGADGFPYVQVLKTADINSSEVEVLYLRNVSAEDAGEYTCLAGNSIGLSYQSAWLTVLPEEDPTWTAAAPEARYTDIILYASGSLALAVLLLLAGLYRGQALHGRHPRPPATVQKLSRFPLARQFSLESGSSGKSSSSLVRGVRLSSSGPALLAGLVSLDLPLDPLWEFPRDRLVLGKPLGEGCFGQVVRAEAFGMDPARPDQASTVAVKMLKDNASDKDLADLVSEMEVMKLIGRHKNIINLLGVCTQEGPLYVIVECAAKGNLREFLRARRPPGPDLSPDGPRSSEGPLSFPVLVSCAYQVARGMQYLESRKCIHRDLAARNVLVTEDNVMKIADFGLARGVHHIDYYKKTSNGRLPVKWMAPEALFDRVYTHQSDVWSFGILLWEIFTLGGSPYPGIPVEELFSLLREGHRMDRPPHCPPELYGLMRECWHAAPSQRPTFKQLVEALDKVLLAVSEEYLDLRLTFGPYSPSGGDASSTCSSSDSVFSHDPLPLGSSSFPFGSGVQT
T18 sequence (Q15139 whole entry): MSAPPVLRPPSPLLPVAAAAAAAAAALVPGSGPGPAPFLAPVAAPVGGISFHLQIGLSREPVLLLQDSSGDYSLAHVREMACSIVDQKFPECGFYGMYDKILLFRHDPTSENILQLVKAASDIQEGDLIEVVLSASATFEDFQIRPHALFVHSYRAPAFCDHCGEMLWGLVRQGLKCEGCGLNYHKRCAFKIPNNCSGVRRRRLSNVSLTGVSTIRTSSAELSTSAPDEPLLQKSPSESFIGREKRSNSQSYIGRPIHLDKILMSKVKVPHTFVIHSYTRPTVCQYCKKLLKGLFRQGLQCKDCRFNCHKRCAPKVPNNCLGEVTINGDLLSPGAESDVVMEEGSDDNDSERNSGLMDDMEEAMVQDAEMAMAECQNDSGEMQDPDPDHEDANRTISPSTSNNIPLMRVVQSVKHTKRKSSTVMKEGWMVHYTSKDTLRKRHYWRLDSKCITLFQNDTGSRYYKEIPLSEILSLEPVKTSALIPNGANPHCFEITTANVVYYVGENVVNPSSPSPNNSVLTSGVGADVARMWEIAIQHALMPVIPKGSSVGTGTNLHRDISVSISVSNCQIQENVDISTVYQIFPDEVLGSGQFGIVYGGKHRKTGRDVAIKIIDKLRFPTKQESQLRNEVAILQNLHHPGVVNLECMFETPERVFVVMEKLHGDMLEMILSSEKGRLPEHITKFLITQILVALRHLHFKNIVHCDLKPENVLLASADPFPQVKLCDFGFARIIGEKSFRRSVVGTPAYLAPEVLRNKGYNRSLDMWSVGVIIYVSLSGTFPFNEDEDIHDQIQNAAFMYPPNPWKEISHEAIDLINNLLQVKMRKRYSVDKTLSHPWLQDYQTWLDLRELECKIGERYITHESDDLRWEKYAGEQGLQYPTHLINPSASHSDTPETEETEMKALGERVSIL
T3 sequence (P49761 whole entry): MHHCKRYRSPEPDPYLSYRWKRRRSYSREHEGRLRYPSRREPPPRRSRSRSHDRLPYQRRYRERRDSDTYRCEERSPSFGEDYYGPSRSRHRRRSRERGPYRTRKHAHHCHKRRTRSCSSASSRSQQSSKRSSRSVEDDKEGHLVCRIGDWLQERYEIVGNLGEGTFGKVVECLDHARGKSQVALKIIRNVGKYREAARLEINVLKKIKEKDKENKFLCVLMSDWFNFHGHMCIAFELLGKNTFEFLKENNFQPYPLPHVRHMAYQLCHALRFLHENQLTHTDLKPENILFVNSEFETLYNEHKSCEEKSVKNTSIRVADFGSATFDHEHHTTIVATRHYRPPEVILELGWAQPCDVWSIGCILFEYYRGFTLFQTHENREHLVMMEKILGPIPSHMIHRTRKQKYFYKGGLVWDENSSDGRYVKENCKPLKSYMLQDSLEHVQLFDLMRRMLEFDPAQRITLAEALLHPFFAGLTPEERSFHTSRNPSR
T10 sequence (P21802 22-821 N549H): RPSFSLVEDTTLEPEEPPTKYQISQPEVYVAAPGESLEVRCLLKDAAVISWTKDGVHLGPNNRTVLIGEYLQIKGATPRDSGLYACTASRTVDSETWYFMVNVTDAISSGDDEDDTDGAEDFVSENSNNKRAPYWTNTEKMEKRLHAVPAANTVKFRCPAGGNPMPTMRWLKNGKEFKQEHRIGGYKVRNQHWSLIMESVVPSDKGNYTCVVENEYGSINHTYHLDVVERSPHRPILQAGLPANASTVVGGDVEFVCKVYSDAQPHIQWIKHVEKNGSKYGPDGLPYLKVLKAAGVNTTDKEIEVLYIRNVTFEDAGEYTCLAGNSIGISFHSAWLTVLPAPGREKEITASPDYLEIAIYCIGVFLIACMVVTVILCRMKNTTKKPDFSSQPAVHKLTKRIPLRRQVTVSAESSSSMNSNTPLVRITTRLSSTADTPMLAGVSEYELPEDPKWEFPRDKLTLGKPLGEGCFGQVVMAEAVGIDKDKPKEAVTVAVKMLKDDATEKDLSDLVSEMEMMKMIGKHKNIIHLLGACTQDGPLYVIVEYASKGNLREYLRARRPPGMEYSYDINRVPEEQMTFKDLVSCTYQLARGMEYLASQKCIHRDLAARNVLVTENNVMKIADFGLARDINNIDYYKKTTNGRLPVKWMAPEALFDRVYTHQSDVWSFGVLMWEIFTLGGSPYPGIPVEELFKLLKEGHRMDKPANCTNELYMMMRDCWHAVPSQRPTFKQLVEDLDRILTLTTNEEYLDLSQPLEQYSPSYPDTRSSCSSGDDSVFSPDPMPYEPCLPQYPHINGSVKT

For `NS(=O)(=O)c1ccc(Nc2ncc3cc4n(c3n2)C2(CCCCC2)C(=O)NN4)cc1` [INX-315], the inhibition at 0.1 µM (ABL1 E255K) was 11%, the inhibition at 0.1 µM (ABL1 Y253F) was 8% and the inhibition at 0.1 µM (CLK3) was -1%. It also gave an inhibition at 0.1 µM (DNA-PK) of 6%, an inhibition at 0.1 µM (EGFR (ErbB1) C797S) of -8% and an inhibition at 0.1 µM (EGFR (ErbB1) L858R) of 1%. It also gave an inhibition at 0.1 µM (EPHA5) of 1%, an inhibition at 0.1 µM (EPHA8) of 16% and an inhibition at 0.1 µM (FER) of 13%. For the same compound, the inhibition at 0.1 µM (FGFR2 N549H) was 16%, the inhibition at 0.1 µM (FGFR4) was 2% and the inhibition at 0.1 µM (MAPKAPK5 (PRAK)) was 2%. The inhibition at 0.1 µM (MATK (HYL)) was 6%, the inhibition at 0.1 µM (MST1R (RON)) was 2% and the inhibition at 0.1 µM (PAK7 (KIAA1264)) was 1%. The inhibition at 0.1 µM (PDK1) was 7%, the inhibition at 0.1 µM (PRKCA (PKC alpha)) was 9% and the inhibition at 0.1 µM (PRKD1 (PKC mu)) was 9%. The inhibition at 0.1 µM (PRKG1) was 7%, the inhibition at 0.1 µM (RET A883F) was 22% and the inhibition at 0.1 µM (RET V804E) was 13%. For the same compound, the inhibition at 0.1 µM (SNF1LK2) was 18%, the inhibition at 0.1 µM (STK3 (MST2)) was 19% and the inhibition at 0.1 µM (TEK (Tie2)) was -1%. For the same compound, the inhibition at 0.1 µM (TNK1) was 14%, the “loss of body weight during the studies” value [1] was no more than 5% and the solubility (Water solubility) was less than 50 µg/mL.
